Laboratory results as given in patent US9464064B2, “HCV helicase inhibitors and methods of use thereof” (University of Kansas, priority 2011, dated 2016).

Target: T1, HCV NS3 helicase NS3h_1b(con1) (Hepatitis C virus genotype 1b, UniProt Q9WMX2)
T1 construct: truncated C-terminally His-tagged NS3 proteins lacking the N-terminal protease, called NS3h; His-tag (C); made in house
Assay: MBHA screen of NCI mechanistic set library at 20 μM (percent inhibition, compound interference)
Format: biochemical
Conditions: compounds at 20 μM; for Inh. (%) (Inhibition): calculated from Equation 1
In short: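 Molecular beacon-based DNA unwinding assay; compounds screened at 20 μM in triplicate, with DMSO-only negative and 500 nM dT20 positive controls. Fluorescence (ex 643/em 670 nm) was read before and 30 min after adding ATP to 1 mM. Percent inhibition came from the change relative to DMSO controls; interference from pre-ATP fluorescence versus DMSO controls.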

[1] = MBHA with DNA substrate, assay interference calculated with Equation 2
[2] = assay interference calculated with Equation 2 (fluorescence vs DMSO-only controls before ATP)

T1 sequence (Q9WMX2 1192-1657): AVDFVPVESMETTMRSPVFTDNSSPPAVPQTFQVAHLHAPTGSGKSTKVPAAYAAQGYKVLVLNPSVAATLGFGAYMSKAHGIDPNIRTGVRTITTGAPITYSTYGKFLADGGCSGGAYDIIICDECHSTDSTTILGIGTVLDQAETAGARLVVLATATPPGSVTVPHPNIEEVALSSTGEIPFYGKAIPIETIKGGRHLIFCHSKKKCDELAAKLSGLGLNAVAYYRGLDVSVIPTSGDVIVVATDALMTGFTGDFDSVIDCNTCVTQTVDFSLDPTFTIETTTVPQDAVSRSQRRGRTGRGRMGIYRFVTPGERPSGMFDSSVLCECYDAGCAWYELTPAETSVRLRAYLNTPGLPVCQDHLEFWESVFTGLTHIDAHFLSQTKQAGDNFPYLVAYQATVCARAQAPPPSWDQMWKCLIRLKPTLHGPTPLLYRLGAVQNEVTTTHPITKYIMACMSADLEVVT

| Int.* (Ratio) (Interference) [1] | Inh. (%) (Inhibition) (MBHA with DNA substrate) | Inh. (%) (Inhibition) (MBHA with a DNA substrate) | Int.* (Ratio) (Interference) [2] | Compound |
| --- | --- | --- | --- | --- |
|  |  | 10.9 | 1.09 | CCCC(=O)OCC1OC(n2ccc(N)nc2=O)C(OC(=O)CCC)C1OC(=O)CCC (stereo not drawn) [Compound 138429] |
|  |  | 7.0 | 0.98 | CCS(=O)(=O)O.CN(C)C(=O)c1cccc(COc2ccc(N3C(N)=NC(N)=NC3(C)C)cc2Cl)c1 [Compound 139105] |
| 0.95 | −13.8 |  |  | CN1c2c(nc(N)[nH]c2=O)NCC1CCNc1ccc(C(=O)N[C@@H](CCC(=O)[O-])C(=O)[O-])cc1.[Na+].[Na+] (stereo partly drawn) [Compound 139490] |
| 0.75 | 53.1 |  |  | CCN(CC)CCNc1ccc(CO)c2sc3ccccc3c(=O)c12 [Compound 142982] |
| 1.12 | −11.3 |  |  | C=C1C(=O)OCC2C(C(=O)O)=CC3C(C)C(C)=CC123 (stereo not drawn) [Compound 145150] |
| 0.53 | 33.1 |  |  | CC(C)(C)CC(C)(C)NCC(O)COc1ccc(C(C)(C)c2ccc(OCC(O)CNC(C)(C)CC(C)(C)C)cc2)cc1.Cl (stereo not drawn) [Compound 145366] |
| 0.67 | 34.3 |  |  | COc1cc2c[n+](C)c3c4cc5c(cc4ccc3c2cc1OC)OCO5 [Compound 146397] |
| 1.12 | 6.1 |  |  | O=c1[nH]c(=O)n(C2OC(CO)C(O)C2O)cc1F (stereo not drawn) [Compound 146604] |
| 0.94 | 13.2 |  |  | COc1cc(NC(C)CCCN)c2ncccc2c1.O=P(O)(O)O.O=P(O)(O)O (stereo not drawn) [Compound 149765] |
| 1.17 | 2.3 |  |  | N#CC1CC(c2ccccc2)Nc2cc(Cl)ccc2N1 (stereo not drawn) [Compound 155595] |
|  |  | −23.4 | 1.02 | COC(=O)[C@@H]1[C@H](O)[C@H](C)[C@H](O)[C@H](C)/C=C\C=C(/C)C(=O)Nc2c(C)c(OC(C)=O)c3c(c2O)C(=O)C(C)=C2OCOC(=C23)/C(C)=C/[C@@](C)(O)[C@H](O)[C@@H](C)[C@H]1OC(C)=O [Compound 156215] |
|  |  | 7.1 | 1.11 | CC(=O)OCc1cc(=O)n(C)c2c3c4c(cc12)c(C)cc(=O)n4CO3 [Compound 157004] |
|  |  | 10.6 | 0.88 | CCN(CC)CCCC(C)Nc1ccnc(/C=C/c2ccc(Cl)cc2)c1 (stereo not drawn) [Compound 157389] |
|  |  | 7.6 | 0.86 | Cc1ccc([S+](c2ccc(C)cc2)c2ccc(C)cc2)cc1 [Compound 157930] |
| 0.87 | 13.3 |  |  | COc1ccc2cc3[n+](cc2c1OC)CCc1cc2c(cc1-3)OCO2.[Cl-] [Compound 163088] |
| 1.20 | −14.2 |  |  | CCSC(=O)N1c2ccc(OC)cc2C=CC1C#N (stereo not drawn) [Compound 165897] |
|  |  | 7.6 | 0.82 | CN1CCN(CCNc2ccc(CO)c3sc4ccccc4c(=O)c23)CC1 [Compound 166381] |
| 0.18 | 60.4 |  |  | Cc1cc(N)c2ccccc2[n+]1CCCCCCCCCC[n+]1c(C)cc(N)c2ccccc21.[Cl-].[Cl-] [Compound 166454] |
| 1.00 | 3.7 |  |  | CSc1ccc(NC(=O)CCl)cc1 [Compound 166464] |
| 0.96 | −12.6 |  |  | CC(=O)OCCN1c2ccccc2Sc2cnccc21 [Compound 168221] |
| 0.95 | 13.3 |  |  | Cc1cc2nc(C=C(C(F)(F)F)C(F)(F)F)oc2cc1C [Compound 168415] |
|  |  | 9.6 | 1.02 | CNC(=S)N/N=C/c1ccc([N+](=O)[O-])s1 [Compound 169543] |
| 0.90 | 0.0 |  |  | COC(=O)C1(C)CCCC2(C)c3cc(OC)ccc3C(=O)C(Br)C12 (stereo not drawn) [Compound 169600] |
| 0.87 | 18.3 |  |  | OCCNCCN1CCN(CCCN2c3ccccc3Sc3ccc(C(F)(F)F)cc32)CC1 [Compound 169676] |
| 1.12 | −9.4 |  |  | C[C@H](CN1CC(=O)NC(=O)C1)N1CC(=O)NC(=O)C1 [Compound 169779] |

Second part, the compound before the results:

| Compound | Int.* (Ratio) (Interference) [1] | Inh. (%) (Inhibition) (MBHA with DNA substrate) | Inh. (%) (Inhibition) (MBHA with a DNA substrate) | Int.* (Ratio) (Interference) [2] |
| --- | --- | --- | --- | --- |
| CC1=CC23C(COC(=O)C24CO4)C(C(=O)O)=CC3C1C.NCc1ccccc1 (stereo not drawn) [Compound 136037] | 1.00 | 3.9 |  |  |
| CC[C@@]1(O)C[C@H](OC2CC(N(C)C)C(O)C(C)O2)c2c(O)c3c(c(O)c2[C@H]1OC1CC(N(C)C)C(O)C(C)O1)C(=O)c1cccc(O)c1C3=O (stereo partly drawn) [Compound 136044] | 0.33 | 47.9 |  |  |
| Cc1cccc(NC(=O)/C=C/c2ccc([N+](=O)[O-])cc2)c1 [Compound 139109] | 1.06 | −1.2 |  |  |
| CC(C)=CCC(OC(=O)C=C(C)C)C1=CC(=O)c2c(O)ccc(O)c2C1=O (stereo not drawn) [Compound 140377] |  |  | 9.4 | 0.93 |
| O=S(=O)(c1cccc(N=C=S)c1)c1cccc(N=C=S)c1 [Compound 140911] | 0.99 | 3.1 |  |  |
| Cl.NC(=O)c1cn(C2OC(CO)C(O)C2O)c2ncnc(N)c12 (stereo not drawn) [Compound 143648] |  |  | −4.1 | 0.99 |
| O=C1NC(c2cccc3ccccc23)Nc2ccccc21 (stereo not drawn) [Compound 145669] | 1.14 | 14.8 |  |  |
| O=c1cnn(C2OC(CO)C(O)C2O)c(=S)[nH]1 (stereo not drawn) [Compound 146268] | 1.15 | 0.2 |  |  |
| COc1ccc(C[C@@H]2NC[C@@H](O)[C@@H]2OC(C)=O)cc1.Cl [Compound 147340] |  |  | −5.2 | 1.01 |
| O=c1[nH]c(=O)n(C2CCCO2)cc1F (stereo not drawn) [Compound 148958] | 0.99 | −8.9 |  |  |
| COc1cc2cc(c1Cl)N(C)C(=O)C[C@H](OC(=O)[C@H](C)N(C)C(C)=O)[C@]1(C)O[C@H]1[C@H](C)[C@@H]1C[C@@](O)(NC(=O)O1)[C@H](OC)/C=C/C=C(\C)C2 [Compound 153858] | 0.95 | 0.3 |  |  |
| COC(=O)Nc1nc2ccc(Br)cc2[nH]1 [Compound 154754] |  |  | 7.6 | 0.91 |
| COc1cc2cc3c4cc(OC)c(OC)cc4cc[n+]3c(C)c2cc1OC.O=C(O)CS(=O)(=O)[O-] [Compound 154890] | 0.29 | 79.4 |  |  |
| CCOC(=O)/C=C/c1c(C)[nH]c(=O)[nH]c1=O [Compound 159935] | 0.89 | −0.8 |  |  |
| Cc1c2cnccc2c(C)c2c1c1ccccc1n2CCOC(=O)c1ccccc1 [Compound 163443] | 0.88 | −7.6 |  |  |
| N[C@H](C(=O)O)[C@@H]1CC(Cl)=NO1 [Compound 163501] |  |  | 10.3 | 0.91 |
| CC(=O)[O][Sn]([CH2]c1ccccc1)([CH2]c1ccccc1)[CH2]c1ccccc1 [Compound 164909] |  |  | −20.2 | 1.04 |
| CCC[CH2][Sn]([CH2]CCC)([CH2]CCC)[O]c1cc(Cl)c(Cl)cc1Cl [Compound 164914] |  |  | 11.5 | 0.91 |
| COC(=O)[C@@]12OC[C@]34[C@H]([C@@H](O)[C@@H]1O)[C@@]1(C)CC(=O)C(O)=C(C)[C@@H]1C[C@H]3OC(=O)[C@H](OC(=O)/C=C(\C)C(C)C)[C@@H]24 [Compound 165563] | 0.95 | 14.6 |  |  |
| CC1C(Oc2c(-c3ccc(O)c(O)c3)oc3c(O)cc(O)cc3c2=O)OC(O)C(O)C1O (stereo not drawn) [Compound 167410] | 0.87 | −13.8 |  |  |
| CCOC(=O)[C@H](CC(C)C)NC(=O)C(Cc1ccc(N(CCCl)CCCl)cc1)NC(C)=O (stereo partly drawn) [Compound 167780] | 1.00 | 22.8 |  |  |
| CCC[CH2][Pb]([Cl])([CH2]CCC)[CH2]CCC [Compound 168597] | 0.98 | 2.6 |  |  |
| CC(C)C[C@H]1C(=O)N2CCC[C@H]2[C@]2(O)O[C@](NC(=O)[C@@H]3C=C4c5cccc6[nH]c(Br)c(c56)C[C@H]4N(C)C3)(C(C)C)C(=O)N12.CS(=O)(=O)O [Compound 169774] | 0.92 | −15.6 |  |  |
| O=c1[nH]c2ccccc2n1C1CCN(CCCC(c2ccc(F)cc2)c2ccc(F)cc2)CC1 [Compound 170984] | 0.95 | 4.7 |  |  |
| COC(=O)[C@@]12OC[C@]34[C@H]([C@@H](O)[C@@H]1O)[C@@]1(C)CC(=O)C(O)=C(C)[C@@H]1C[C@H]3OC(=O)[C@H](OC(=O)C=C(C)C)[C@@H]24 [Compound 172924] | 1.01 | 13.3 |  |  |
| CC(=O)[O][Pb]([O]C(C)=O)([c]1ccccc1)[c]1ccccc1 [Compound 173046] | 0.93 | −12.2 |  |  |
